Laboratory results taken from US20040097734A1, “Aryl- and heteroarylcarbonylpiperazines and their use for the treatment of benign and malignant oncoses” (priority 2002, published 2004).
Converted amounts (≈) assume the structure as drawn. Like-named read-outs stand apart in the source and are kept apart here.

Columns and labels:
[1] = test system: human cervical carcinoma cell line KB/HeLa; experiment: XTT proliferation assay, KB/HeLa; assay type: cell-based; conditions: KB/HeLa cells, 45 h incubation
Description: (§1) The substances according to the invention were investigated for their antiproliferative activity in a proliferation test on established tumor cell lines. The test used determines the cellular dehydrogenase activity and makes possible a determination of the cell vitality and indirectly the cell count. The cell lines used are the human cervical carcinoma cell line KB/HeLa, (ATCC CCL17), the ovarian adenocarcinoma cell line SKOV-3 (ATCC HTB77), the human glioblastoma cell line SF-268 (NCI 503138) and the lung carcinoma cell line NCI-H460 (NCI 503473). In addition, for the investigation of the cell cycle-specific action of the substance, an RKOp27 cell system was used (M. Schmidt et al. Oncogene 19(20):2423-9, 2000). RKO is a human colon carcinoma cell line, in which the cell cycle inhibitor p27^kip1 induced by means of the ecdysone expression system is expressed and can be led to a cell cycle arrest specifically in […]. A nonspecifically acting substance inhibits the proliferation independently of weather the RKO cell is or is not arrested in G1 or G2. Cell cycle-specific substances such as, for example, tubulin inhibitors are, however, only cytotoxic if cells are not arrested and the cell cycle is passed through. In table 1, the cytotoxic and/or growth-inhibiting activities of the compound described with/without expression of p27^kip1 are shown.
(§2) The adherently growing tumor cell lines KB/HeLa, SKOV-3, SF-268 and NCI-H460 were cultured under standard conditions in a fumigation incubator at 37° C., 5% CO2 and 95% atmospheric humidity. On experimental day 1, the cells are detached using trypsin/EDTA and pelleted by centrifugation. Subsequently, the cell pellet is resuspended in the respective culture medium at the corresponding cell count and reacted in a 96-well microtiter plate. The plates are then cultured overnight in the fumigation incubator. The test substances are prepared as 1 mg/ml stock solutions in DMSO and diluted to the appropriate concentrations on experimental day 2 using culture medium. The substances in culture medium are then added to the cells and incubated in the fumigation incubator for 45h. As a control, cells which are not treated with test substance are used. For the XTT assay, 1 mg/ml of XTT (sodium 3′-[1-(phenylaminocarbonyl)-3,4-tetrazolium]-bis(4-methoxy-6-nitro)benzenesulfonic acid) is dissolved in RPMI-1640 medium without Phenol Red. Additionally, a 0.383 mg/ml PMS (N-methyldibenzopyrazine methylsulfate) solution in phosphate-buffered saline solution (PBS) is prepared. On experimental day 4, 75 μl/well of XTT-PMS mixture is pipetted onto the cell plates which in the meantime have been incubated with the test substances for 45 h. For this, shortly before use, the XTT solution is mixed with the PMS solution in the ratio 50:1 (vol:vol). The cell plates are then incubated in the fumigation incubator for a further 3h and the optical density (OD490nm) is determined in a photometer. By means of the OD490nm determined, the percentage inhibition is calculated relative to the control and plotted semilogarithmically in the form of a concentration-action curve. The EC50 is calculated by means of a regression analysis from the concentration-action curve using the program Graphpad Prism.

[2] = test system: ovarian adenocarcinoma cell line SKOV-3; experiment: XTT proliferation assay, SKOV-3; assay type: cell-based; conditions: Homo sapiens, SK-OV-3; SKOV-3 cells, 45 h incubation; read-out: XTT proliferation assay, EC50, SKOV3
Description: as §1, §2

[3] = test system: human glioblastoma cell line SF-268; experiment: XTT proliferation assay, SF-268; assay type: cell-based; conditions: SF-268 cells, 45 h incubation
Description: as §1, §2

[4] = test system: lung carcinoma cell line NCI-H460; experiment: XTT proliferation assay, NCI-H460; assay type: cell-based; conditions: Homo sapiens; NCI-H460 cells, 45 h incubation
Description: as §1, §2

[5] = test system: RKOp27 human colon carcinoma cell line; experiment: Cell cycle analysis by means of the RKOp27 model (XTT); assay type: cell-based; conditions: RKOp27, 45 h, RKOp27 cells, read-out: XTT proliferation assay, EC50, RKOP27
Description: as §1, §2
The assay is carried out in 96-well plates. […] By comparison of the activity on induced and noninduced cells, conclusions on the mechanism of action (cell cycle specificity) of the therapeutics can be drawn. […] are inoculated in approximately three-fold higher cell count, since division no longer takes place during the assay in comparison with uninduced cells (20000 cells/well induced, 6250 cells/well not induced). The controls are untreated cells (+/−induction). The induction is carried out with 3 μM muristerone A On the 1st day, the cells are exposed (+/− muristerone A) and incubated at 37° C. for 24h. […]

[6] = test system: bovine tubulin; experiment: Tubulin polymerization assay; assay type: biochemical; conditions: average of two independent experiments; for Inhibition of tubulin polymerization, EC50, without MAPs: MAP-free bovine tubulin; for Inhibition of tubulin polymerization, EC50, with 30% MAPs: bovine tubulin with 30% MAPs
Experimental: Selected substances were tested for inhibition of the polymerization of bovine tubulin in an in-vitro test. In this test, tubulin purified by cycles of polymerization and depolymerization is employed, which is polymerized by addition of GTP and warming. In Table 2, the EC50 values of the inhibition of polymerization of tubulin with 30% associated proteins (MAPs) and of MAP-free tubulin are indicated.
The assay is carried out based on the method of Bollag et. al. Lyophilized bovine tubulin (cytoskeleton, ML113 tubulin 30% MAPs, TL238 tubulin MAP free) is dissolved in a concentration of 2 mg/ml (ML113 in 80 mM PIPES, 0.5 mM EGTA, 2 mM MgCl2, pH6.9, 1 mM GTP) or 5 mg/ml (TL238 in 80 mM PIPES, 1 mM EGTA, 0.5 mM MgCl2, 20% (v:v) glycerol pH 6.9, 1 mM GTP). The test substances are diluted in 10% DMSO (v:v) and 5 μl of the dilutions are transferred to a 96-well microtiter plate (Nunc, half area plate). After addition of 45 μl of the tubulin solution, the polymerization is determined at 340 nm in a Spectramax 190 microtiter plate reader (Molecular devices) by means of a kinetics program at 30 sec intervals over a period of 20 min. The resulting area under curve values are used for the calculation of the inhibition with respect to the untreated control and plotted semilogarithmically in the form of a concentration-action curve. The EC50 is calculated by means of a regression analysis from the concentration-action curve using the program Graphpad Prism.

[7] = p27kip1 induced with 3 μM muristerone A (arrested)
[8] = without expression of p27kip1 (not induced)

SMILES | EC50 [1] | EC50 [2] | EC50 [3] | EC50 [4] | EC50 [5, 7] | EC50 [5, 8] | Inhibition of tubulin polymerization, EC50, without MAPs [6] | Inhibition of tubulin polymerization, EC50, with 30% MAPs [6] | melting point
COc1cc(OC)cc(N2CCN(C(=O)c3cccc4c3-c3ccccc3C4=O)CC2)c1 [Compound 1, 4-[4-(3,5-Dimethoxyphenyl)piperazine-1-carbonyl]fluoren-9-one] | 0.555 µg/mL (≈ 1.3 µM) | 0.4 µg/mL (≈ 0.934 µM) | 0.309 µg/mL (≈ 0.721 µM) | 0.312 µg/mL (≈ 0.728 µM) | > 3.16 µg/mL | 0.208 µg/mL (≈ 0.485 µM) | 1.36 µg/mL | 0.86 µg/mL | –
Cc1cccc(N2CCN(C(=O)c3cccc4c3-c3ccccc3C4=O)CC2)n1 [Compound 2, 4-[4-(6-Methylpyridin-2-yl)piperazine-1-carbonyl]fluoren-9-one] | 2.59 µg/mL (≈ 6.76 µM) | 0.585 µg/mL (≈ 1.53 µM) | 0.939 µg/mL (≈ 2.45 µM) | 0.886 µg/mL (≈ 2.31 µM) | > 3.16 µg/mL | 0.326 µg/mL (≈ 0.85 µM) | – | – | –
O=C1c2ccccc2-c2c1cccc2C(=O)N1CCN(c2cccc(O)c2)CC1 [Compound 3, 4-[4-(3-Hydroxyphenyl)piperazine-1-carbonyl]fluoren-9-one] | 4.32 µg/mL (≈ 11.2 µM) | 0.397 µg/mL (≈ 1.03 µM) | 0.478 µg/mL (≈ 1.24 µM) | 0.853 µg/mL (≈ 2.22 µM) | > 3.16 µg/mL | 0.726 µg/mL (≈ 1.89 µM) | – | 4.77 µg/mL | –
Cc1cc(C)cc(N2CCN(C(=O)c3cnnc4ccccc34)CC2)c1 [Compound 5, Cinnolin-4-yl-[4-(3,5-dimethylphenyl)piperazin-1-yl]methanone] | 1.21 µg/mL (≈ 3.5 µM) | 0.496 µg/mL (≈ 1.43 µM) | 0.474 µg/mL (≈ 1.37 µM) | 0.348 µg/mL (≈ 1 µM) | > 3.16 µg/mL | 0.25 µg/mL (≈ 0.722 µM) | – | – | 114 °C
CSc1nsc(SC)c1C(=O)N1CCN(c2cccc(C)n2)CC1 [Compound 7, (3,5-Bismethylsulfanylisothiazol-4-yl)-[4-(6-methylpyridin-2-yl)piperazin-1-yl]methanone] | 2.71 µg/mL (≈ 7.12 µM) | 1.01 µg/mL (≈ 2.65 µM) | – | 1.54 µg/mL (≈ 4.05 µM) | > 3.16 µg/mL | 1.2 µg/mL (≈ 3.15 µM) | – | – | –
COc1cc(OC)cc(N2CCN(C(=O)c3nccc4ccccc34)CC2)c1 [Compound 8, [4-(3,5-Dimethoxyphenyl)piperazin-1-yl]isoquinolin-1-ylmethanone] | 0.929 µg/mL (≈ 2.46 µM) | 0.287 µg/mL (≈ 0.76 µM) | 0.775 µg/mL (≈ 2.05 µM) | 0.439 µg/mL (≈ 1.16 µM) | > 3.16 µg/mL | 0.291 µg/mL (≈ 0.771 µM) | – | 5.66 µg/mL | –
COc1cc(OC)cc(N2CCN(C(=O)c3cccc4c3Cc3ccccc3-4)CC2)c1 [Compound 9, [4-(3,5-Dimethoxyphenyl)piperazin-1-yl]-(9H-fluoren-1-yl)methanone] | 0.613 µg/mL (≈ 1.48 µM) | 0.341 µg/mL (≈ 0.823 µM) | 0.692 µg/mL (≈ 1.67 µM) | 0.427 µg/mL (≈ 1.03 µM) | > 3.16 µg/mL | 0.217 µg/mL (≈ 0.524 µM) | – | – | 148 °C
COc1cccc(N2CCN(C(=O)c3cccc4c3Cc3ccccc3-4)CC2)c1 [Compound 11, (9H-Fluoren-1-yl)-[4-(3-methoxyphenyl)piperazin-1-yl]methanone] | – | – | – | – | – | – | – | – | 124 °C
COc1cc(OC)cc(N2CCN(C(=O)C3c4ccccc4Oc4ccccc43)CC2)c1 [Compound 12, [4-(3,5-Dimethoxyphenyl)piperazin-1-yl]-(9H-xanthen-9-yl)methanone] | 0.08 µg/mL (≈ 0.186 µM) | 0.029 µg/mL (≈ 0.0674 µM) | 0.075 µg/mL (≈ 0.174 µM) | 0.064 µg/mL (≈ 0.149 µM) | > 3.16 µg/mL | 0.058 µg/mL (≈ 0.135 µM) | 1.71 µg/mL | 1.16 µg/mL | –
COc1cccc(N2CCN(C(=O)c3ccnn3-c3ccccc3)CC2)c1 [Compound 14, [4-(3-Methoxyphenyl)piperazin-1-yl]-(2-phenyl-2H-pyrazol-3-yl)methanone] | 0.012 µg/mL (≈ 0.0331 µM) | 0.008 µg/mL (≈ 0.0221 µM) | 0.009 µg/mL (≈ 0.0248 µM) | 0.005 µg/mL (≈ 0.0138 µM) | > 3.16 µg/mL | 0.006 µg/mL (≈ 0.0166 µM) | – | 0.46 µg/mL | –
Cc1cccc(N2CCN(C(=O)c3ccnn3-c3ccccc3)CC2)n1 [Compound 15, [4-(6-Methylpyridin-2-yl)piperazin-1-yl]-(2-phenyl-2H-pyrazol-3-yl)methanone] | 0.04 µg/mL (≈ 0.115 µM) | 0.018 µg/mL (≈ 0.0518 µM) | 0.036 µg/mL (≈ 0.104 µM) | 0.024 µg/mL (≈ 0.0691 µM) | > 3.16 µg/mL | 0.022 µg/mL (≈ 0.0633 µM) | – | 0.88 µg/mL | –
O=C(c1ccnn1-c1ccccc1)N1CCN(c2cccc(O)c2)CC1 [Compound 16, [4-(3-Hydroxyphenyl)piperazin-1-yl]-(2-phenyl-2H-pyrazol-3-yl)methanone] | 0.147 µg/mL (≈ 0.422 µM) | 0.082 µg/mL (≈ 0.235 µM) | 0.1 µg/mL (≈ 0.287 µM) | 0.087 µg/mL (≈ 0.25 µM) | > 3.16 µg/mL | 0.064 µg/mL (≈ 0.184 µM) | – | 4.20 µg/mL | –
